The source made the active and inactive calls. No cut-off for these calls is given here.
Assays:
Type in all cases: functional, cell-based
[1] = tested on: PC-3; experiment: Antiproliferative activity against human PC-3 cells by MTT assay
[2] = tested on: PANC-1; experiment: Antiproliferative activity against human PANC-1 cells by MTT assay
[3] = tested on: HeLa; experiment: Antiproliferative activity against human HeLa cells by MTT assay
[4] = tested on: HCT-116; experiment: Antiproliferative activity against human HCT-116 cells by MTT assay
[5] = tested on: SK-MEL-28; experiment: Antiproliferative activity against human SK-MEL-28 cells by MTT assay
[6] = tested on: HT-1080; experiment: Antiproliferative activity against human HT-1080 cells by MTT assay
[7] = tested on: MCF7; experiment: Antiproliferative activity against human MCF7 cells by MTT assay
[8] = tested on: SH-SY5Y; experiment: Induction of autophagic flux in human SH-SY5Y cells expressing GFP-LC3 assessed as increase in LC3 punctae co-localized with LAMP1 at 30 to 100 uM incubated for 24 hrs in presence of E64D; settings: dose 30-100 µM
[9] = tested on: HeLa; experiment: Effect on p70S6K phosphorylation in human HeLa cells at 1 to 30 uM incubated for 24 hrs by Western blot analysis; settings: dose 1-30 µM
[10] = tested on: SH-SY5Y; experiment: Induction of autophagic flux in human SH-SY5Y cells expressing GFP-LC3 assessed as increase in LC3 punctae co-localized with LAMP1 at 30 to 100 uM incubated for 24 hrs in presence of pepA; settings: dose 30-100 µM
[11] = tested on: HeLa; experiment: Induction of autophagic flux in human HeLa cells assessed as increase in LC3-II expression at 30 to 100 uM incubated for 24 hrs in presence of E64D by Western blot analysis; settings: dose 30-100 µM
[12] = tested on: HeLa; experiment: Induction of autophagic flux in human HeLa cells assessed as increase in LC3-II expression at 30 to 100 uM incubated for 24 hrs in presence of pepA by Western blot analysis; settings: dose 30-100 µM
[13] = tested on: HeLa; experiment: Induction of autophagy in human HeLa cells assessed as increase in LC3-II expression incubated for 24 hrs by Western blot analysis; settings: dose 1-30 µM
[14] = tested on: HeLa; experiment: Induction of autophagy in human HeLa cells assessed as increase in LC3-II expression at 100 uM incubated for 24 hrs by Western blot analysis
[15] = tested on: HeLa; experiment: Effect on p70S6K phosphorylation in human HeLa cells at 100 uM incubated for 24 hrs by Western blot analysis

Row | SMILES | IC50 [1] [µM] | IC50 [2] [µM] | IC50 [3] [µM] | IC50 [4] [µM] | IC50 [5] [µM] | IC50 [6] [µM] | IC50 [7] [µM] | Activity [8] | Activity [9] | Activity [10] | Activity [11] | Activity [12] | Activity [13] | Activity [14] | Activity [15]
1 | NC1=CC(=O)O/C1=C/CO | > 100 | > 100 | > 100 | > 100 | > 100 | > 100 | > 100 |  |  |  |  |  |  |  | 
2 | NC1=CC(=O)O/C1=C/C=O | 9.79 | 5.29 | 15.6 | 5.35 | 5.87 | 11.6 | 7.87 | Active | inactive | Active | Active | Active | Dose-Dependent Effect |  | 
3 | NC1=CC(=O)OC1CCO (stereo not given) | > 100 | > 100 | > 100 | > 100 | > 100 | > 100 | > 100 |  |  |  |  |  |  |  | 
4 | CC(=O)NC1=CC(=O)O/C1=C/C(OC(C)=O)OC(C)=O | 42.6 | 31.3 | 44.8 | 29.9 | 37.1 | 40.8 | 22.4 |  |  |  |  |  |  | Active | inactive
5 | CC(=O)NC1=CC(=O)O/C1=C/C=O | 21.7 | 16.1 | 27.7 | 27.2 | 12.3 | 46.1 | 38.8 |  |  |  |  |  |  | Active | inactive

— ChEMBL document CHEMBL5625273, “Antiproliferative activities through accelerating autophagic flux by basidalin and its analogs in human cancer cells” (Bioorg Med Chem Lett, 2024)
